Paper PMC10473160 (Cancer Research Communications, 2023)

Legend:
A549 cells = assay: CTG combination synergy (Bliss) with ZL-2201, A549; assay type: cell-based, human; details: 6 days of combination treatment
Procedure: Cells were seeded in 384-well plates at a density of 300–500 cells per well (depending upon the doubling time for each cell line) with 40 μL of media per well using a multidrop combi cell dispenser (Thermo Fisher Scientific). The cells were incubated at room temperature for 30 minutes to minimize edge effects. The next day, the cells were treated with drugs of interest at various concentrations using a D300e digital dispenser (Tecan). Following treatment, the cells were cultured at 37°C for 6 days. On day 6 after treatment initiation, the plates and Cell Titer Glo (CTG; Promega; PRG9243) were incubated at room temperature (protected from light) for 1 hour to reach equilibrium. After incubation, half of the CTG volume was added to one volume of cell culture medium in each well. The plates were then shaken for 30 seconds to induce cell lysis. […] The luminescent cell viability was measured using an EnVision plate reader (PerkinElmer). For cell viability, the data were analyzed using Excel (Microsoft) and GraphPad Prism (RRID:SCR_002798; Dotmatics). The data were first transformed to a log scale on the X-axis, then transformed values were normalized, and finally, normalized values were fitted using a nonlinear regression curve fit. For synergy, the data were analyzed using Excel, SynergyFinder ([28]), and Combenefit ([29]). […]

NCI-H1703 cells [1] = details: NCI-H1703, Bliss, 6 days of combination treatment
Procedure: (§1) Cells were seeded in 384-well plates at a density of 300–500 cells per well (depending upon the doubling time for each cell line) with 40 μL of media per well using a multidrop combi cell dispenser (Thermo Fisher Scientific). The cells were incubated at room temperature for 30 minutes to minimize edge effects. The next day, the cells were treated with drugs of interest at various concentrations using a D300e digital dispenser (Tecan). Following treatment, the cells were cultured at 37°C for 6 days. On day 6 after treatment initiation, the plates and Cell Titer Glo (CTG; Promega; PRG9243) were incubated at room temperature (protected from light) for 1 hour to reach equilibrium. After incubation, half of the CTG volume was added to one volume of cell culture medium in each well. The plates were then shaken for 30 seconds to induce cell lysis. The cells were then incubated at room temperature for 12 minutes protected from light to stabilize the luminescence signal. The luminescent cell viability was measured using an EnVision plate reader (PerkinElmer). For cell viability, the data were analyzed using Excel (Microsoft) and GraphPad Prism (RRID:SCR_002798; Dotmatics). […] For synergy, the data were analyzed using Excel, SynergyFinder ([28]), and Combenefit ([29]). […]

NCI-H1703 cells [2] = assay: Cell Titer Glo cellular cytotoxicity assay, NCI-H1703; assay type: cell-based; details: Homo sapiens, NCI-H1703, 144 h; H1703, 6 days, representative experiment, unit not readable in the picture; read-out: IC50 (Fig. 3B)
Procedure: as §1

NCI-H1703 cells [3] = assay: High-content imaging assay (γH2AX, phospho-histone H3, cleaved caspase 3); assay type: cell-based, human; details: single-agent treatment, 72 hours
Procedure: Cells were seeded in 96-well plates at a density of 10,000 cells per well with 100 μL of media per well. The cells were cultured overnight. The next day, the cells were treated with doxorubicin (0.006 μmol/L), ZL-2201 (0.1, 0.3, 0.5, 1, and 3.6 μmol/L), and a combination of doxorubicin and ZL-2201 for the indicated times. The cells were washed in PBS and fixed by adding Cytofix/Perm buffer (BD; 554714) at room temperature for 20 minutes. Cells were washed with Perm wash buffer and blocked with Perm wash buffer and 3% FBS at room temperature for 1 hour. The cells were then incubated with primary antibodies against γH2AX-Ser139 (RRID:AB_309864; Millipore; 05-636), pPH3 (Ser10; 6G3; RRID:AB_331748; Cell Signaling Technology; 9706) and cleaved caspase 3 (Asp175; 5A1E; RRID:AB_2070042; Cell Signaling Technology; 9664) overnight at 4°C. Cells were washed the following day and incubated with secondary antibodies (Alexa Fluor 488; Invitrogen; A32723 or A32731 and Alexa Fluor 647; A32733) at room temperature for 45 minutes in the dark. The cells were washed and stained with Hoescht (Thermo Fisher Scientific; H3570) at room temperature for 15 minutes in the dark. Images were obtained and quantified using the ImageXpress Micro Confocal High-Content Imaging System (Molecular Devices). A total of 16 fields were obtained per image for each timepoint and treatment groups.

COc1cccc2c1C(=O)c1c(O)c3c(c(O)c1C2=O)C[C@@](O)(C(=O)CO)C[C@@H]3O[C@H]1C[C@H](N)[C@H](O)[C@H](C)O1 [doxorubicin]
synergy score in combination with ZL-2201 (A549 cells): > 30
synergy score in combination with ZL-2201 (NCI-H1703 cells [1]): > 30
IC50 (NCI-H1703 cells [2]): 4 nM
cleaved caspase 3 (apoptosis) level (NCI-H1703 cells [3]): did not alter
phospho-histone H3 (mitotic index) level (NCI-H1703 cells [3]): did not alter
